According to patent publication US20170239212A1, “[…] AND USE THEREOF AS ANTIVIRAL AGENTS” (priority 2014, published 2017):

Experiments:
U937 cells = experiment: Attachment of U937 cells; assay type: cell-based, human; conditions: 72 hours; for Block of PMA-induced attachment of U937 cells: 10 nM PMA with different concentrations of compound; for Attachment of U937 cells (attached cells as percent of total): compound alone
Method: U937 cells (Sundstrom, C.; Nilsson, K.: Establishment and characterization of a human histiocytic lymphoma cell line (U-937). Int. J. Cancer 1976, 17: 565-577), purchased from ATCC (Manassas, Va.) and cultured in RPMI-1640 medium supplemented with 10% FBS (ATCC, Manassas, Va.), were plated in 35 mm dishes at a density of 2×10^5 living cells/ml and treated with different concentrations of the drugs or DMSO. After 72 hours, the number of cells in the supernatant (non-attached cells) and the number of attached cells (after trypsinization) were counted using a Beckman particle counter (Beckman Coulter Inc., Fullerton, Calif.). The number of attached cells is expressed as percent of total cells (FIGS. 8-10).
(§1) U937 cells were treated with PMA (0.1-100 nM), bryostatin 1 (1-1000 nM), the indicated compound (1-1000 nM), 10 nM PMA with different concentrations of bryostatin 1 (1-1000 nM) or 10 nM PMA with different concentrations of indicated compound (1-1000 nM) for 72 hours. The number of attached cells and total cells were counted and the attached cells were graphed as percent of total cells. The bars and error bars represent the average and the standard error of the mean of five independent experiment (FIGS. 8-10).
(§2) U937 cells (Sundstrom and Nilsson, 1976), purchased from ATCC (Manassas, Va.) and cultured in RPMI-1640 medium supplemented with 10% FBS (ATCC, Manassas, Va.), were plated in 35 mm dishes at a density of 1×10^5 living cells/ml and treated with different concentrations of the drugs or DMSO. After 72 hours, the number of cells in the supernatant (non-attached cells) and the number of attached cells (after trypsinization) were counted using a particle counter. The number of attached cells is expressed as percent of total cells.
U937 cells were treated with PMA (0.01-100 nM), bryostatin 1 (0.1-1000 nM), analogue 12 (MERLE 28) (0.1-1000 nM), 10 nM PMA with different concentrations of bryostatin 1 (0.1-1000 nM) or 10 nM PMA with different concentrations of analogue 12 (0.1-1000 nM). The number of attached cells and total cells were counted and the attached cells were graphed as percent of total cells. The bars and error bars represent the average and the standard error of the mean of at least three independent experiments.
as §2
as §1, with “at least three” for “five”, “experiments.” for “experiment (FIGS. 8-10).”

PKC delta = experiment: Phosphorylation of PKC delta at Y311 in LNCaP cells (western blot); assay type: cell-based, human; conditions: 2, 5 or 8 hrs treatment
Method: (§3) FIGS. 14A-14C show the induction of cFos and phosphorylation of PKC6 at Y311 in LNCaP cells. […] The proteins from the lysates were separated by 10% SDS-PAGE, electroblotted to nitrocellulose membranes and probed with anti-cFos primary and anti-rabbit secondary antibodies, followed by ECL visualization. Data are representative of four independent experiments. […] The cFos signal was normalized to the 3-actin signal to correct for loading and the response induced by 100 nM PMA at 2 hrs was taken as 100%. Data represent the means±SEM of four independent experiments. […] Data represent the means±SEM of three independent experiments.
(§4) LNCaP cells treated for 48 hours with the different drugs or with DMSO as control were washed and re-suspended in phosphate buffered saline. Yo-Pro-1 (Invitrogen, Carlsbad, Calif.) was added to a final concentration of 1 μM and the cells were incubated for 20 min at 4° C. in the dark. 7-Aminoactinomycin D (7-AAD) (Invitrogen, Carlsbad, Calif.) was then added at a 5 μg/mL final concentration 10 minutes before analysis by flow cytometry using the FACSCalibur system (Becton Dickinson, Mountain View, Calif.). Data were analyzed with FlowJo 7 (Tree Star Inc., Ashland, Oreg.). The Yo-Pro-1 positive cells were considered apoptotic and were expressed as % of total cells. […]

[1] = system: LNCaP human prostate cancer cells; experiment: Proliferation and morphology of LNCaP cells (Incucyte confluency imaging); assay type: cell-based; conditions: for Persistence of early morphological change (cell flattening) in LNCaP cells: Incucyte images, 0-9 hrs after treatment
Method: FIGS. 12A-12D show the effect of different compounds on the proliferation and apoptosis of LNCaP cells. […] Time-elapsed images were taken with an Incucyte imaging system every hour for 4 days. The proliferation of LNCaP cells is presented as increase in confluency (read by the instrument) at 80 hrs. Data represent the means±SEM of three independent experiments. […] Apoptosis was measured 2 days after treatment by flow cytometry using 7-AAD and Yo-Pro-1 as described in Materials and Methods. Data represent the means±SEM of three independent experiments.
FIGS. 13A and 13B show the proliferation and morphology of LNCaP cells detected by Incucyte. LNCaP cells were treated with DMSO as control, 300 nM PMA, 1000 nM bryostatin 1 or the bryologue MERLE 21, or with 300 nM PMA in combination with 1000 nM bryostatin 1 or the bryologue MERLE 21. Time-elapsed images were taken by the Incucyte imaging system every hour. […] The arrow indicates the time of treatment. Data are representative of three independent experiments.
The extent of confluency of LNCaP cells (from ATCC, Manassas, Va.) and the morphological changes after treatment were followed in real time using Incucyte (Essen Instruments, Ann Arbor, Mich.). Images of LNCaP cells plated into 24 well plates were taken every 1 hour by the instrument before and after treatment for a total of 4 days. The confluency of the cells was calculated by the instrument's program. The proliferation of LNCaP cells was expressed as the difference in cell confluency before and after treatment.

cFos = experiment: Induction of cFos in LNCaP cells (western blot); assay type: cell-based, human; conditions: 2, 5 or 8 hrs treatment
Method: as §3, §4

SMILES | Block of PMA-induced attachment of U937 cells (U937 cells) | Block of PMA-induced attachment of U937 cells (U937 cells; listed as bryostatin 1) | Attachment of U937 cells (attached cells as percent of total) (U937 cells) | Attachment of U937 cells (attached cells as percent of total) (U937 cells; listed as bryostatin 1) | Phosphorylation of PKC delta at Y311 in LNCaP cells (PKC delta) | Block of PMA inhibition of LNCaP cell growth ([1]; 300 nM PMA combined with 1000 nM compound, 80 hrs) | Persistence of early morphological change (cell flattening) in LNCaP cells [1] | Effect on LNCaP cell growth ([1]; compound alone, confluency at 80 hrs) | Time course of cFos induction in LNCaP cells (cFos)
CCC/C=C/C=C/C(=O)O[C@H]1/C(=C/C(=O)OC)C[C@H]2C[C@H]([C@@H](C)O)OC(=O)C[C@H](O)C[C@@H]3C[C@H](OC(C)=O)C(C)(C)[C@](O)(C[C@@H]4C/C(=C/C(=O)OC)C[C@H](/C=C/C(C)(C)[C@]1(O)O2)O4)O3 [Bryostatin 1] | blocks the effect of the phorbol ester | blocks the effect of the phorbol ester in a dose-dependent manner | has much less effect on either response | much diminished effect | only very weak phosphorylation | blocked the inhibition of LNCaP cell growth by PMA | had reversed by 6 hrs after treatment | induced a low level of inhibition of cell growth | largely lost by 5 hrs
CCCCCCCCCCCCCC(=O)O[C@@H]1[C@@H](C)[C@@]2(O)[C@@H](C=C(CO)C[C@]3(O)C(=O)C(C)=C[C@@H]23)[C@@H]2C(C)(C)[C@]12OC(C)=O [PMA, phorbol 12-myristate 13-acetate] |  |  | induces attachment |  | rapid phosphorylation |  | still evident at 6 hrs but reversing by 9 hrs |  | persisted for 5 hrs, with weak induction still evident at 8 hrs
